Measurements as given in the supplement of paper PMC10307832.

How the values were obtained:
Assay in all cases: relative viability (nuclei count vs DMSO), 5 days (fraction); higher = more cells survive
AZ505 = compound: C1CCC(CC1)N(CCNCCC2=C3C(=C(C=C2)O)NC(=O)CO3)C(=O)CCNCCC4=CC(=C(C=C4)Cl)Cl [AZ505]
Procedure, shortened: (§1)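 MetaXpress counted nuclei in 4× images of lung cancer cell lines that had been fixed, permeabilised and Hoechst-stained in one step. Before that, cells in 1536-well plates were kept overnight at 37 °C, pinned with five √10-spaced library-drug doses on vehicle-anchored plates, and cultured 5 days without medium change. Viability takes treated-well nuclei over vehicle-well nuclei and uses the median across plates. Plates were accepted only at control CV below 25% and at least one doubling.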

Dactolisib = compound: Cn1c(=O)n(-c2ccc(C(C)(C)C#N)cc2)c2c3cc(-c4cnc5ccccc5c4)ccc3ncc21 [Dactolisib]
Procedure, shortened: as §1

AZ505 + Alpelisib = compound: C1CCC(CC1)N(CCNCCC2=C3C(=C(C=C2)O)NC(=O)CO3)C(=O)CCNCCC4=CC(=C(C=C4)Cl)Cl [AZ505] + Cc1nc(NC(=O)N2CCC[C@H]2C(N)=O)sc1-c1ccnc(C(C)(C)C(F)(F)F)c1 [Alpelisib] (partner 2 µM)
Procedure, shortened: (§2)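 Relative viability divides the nuclei count in treated wells by that in vehicle wells. Lung cancer cell lines were seeded in 1536-well plates, dosed by pin tool the next day, and fixed and stained after 5 days in one step with final 0.05% Triton X-100, 1% formaldehyde and 1 ug/ml Hoechst. Dosing was a single drug or a fixed anchor-drug dose plus five library-drug doses (not always all listed) in √10 steps, and values are medians of duplicate plates imaged at 4×.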

Dactolisib + Pemetrexed = compound: Cn1c(=O)n(-c2ccc(C(C)(C)C#N)cc2)c2c3cc(-c4cnc5ccccc5c4)ccc3ncc21 [Dactolisib] + Nc1nc2[nH]cc(CCc3ccc(C(=O)N[C@@H](CCC(=O)O)C(=O)O)cc3)c2c(=O)[nH]1 [Pemetrexed] (partner 0.2 µM)
Procedure, shortened: as §2

Cell Line	relative viability (AZ505; 0.08 µM)	relative viability (AZ505; 0.253 µM)	relative viability (AZ505; 0.8 µM)	relative viability (AZ505; 2.53 µM)	relative viability (AZ505; 8 µM)	relative viability (Dactolisib; 0.002 µM)	relative viability (Dactolisib; 0.006325 µM)	relative viability (Dactolisib; 0.02 µM)	relative viability (Dactolisib; 0.06325 µM)	relative viability (Dactolisib; 0.2 µM)	relative viability (AZ505 + Alpelisib; first compound 0.08 µM)	relative viability (AZ505 + Alpelisib; first compound 0.253 µM)	relative viability (AZ505 + Alpelisib; first compound 0.8 µM)	relative viability (AZ505 + Alpelisib; first compound 2.53 µM)	relative viability (AZ505 + Alpelisib; first compound 8 µM)	relative viability (Dactolisib + Pemetrexed; first compound 0.002 µM)	relative viability (Dactolisib + Pemetrexed; first compound 0.006325 µM)	relative viability (Dactolisib + Pemetrexed; first compound 0.02 µM)	relative viability (Dactolisib + Pemetrexed; first compound 0.06325 µM)	relative viability (Dactolisib + Pemetrexed; first compound 0.2 µM)
EKVX	0.957	0.961	0.952	0.89	1.03	1.02	0.971	0.858	0.691	0.417	0.896	1.04	0.896	0.899	1.01	0.248	0.357	0.387	0.356	0.294
HOP-62	0.892	1.09	1.14	0.995	1.08	1.05	1.03	1.02	0.595	0.647	0.94	1.17	0.889	0.844	1.04	0.305	0.33	0.341	0.262	0.25
NCI-H2126	0.993	0.945	0.971	0.984	0.988	1.09	0.936	0.892	0.638	0.488	0.729	0.781	0.771	0.746	0.822	0.574	0.717	0.612	0.471	0.372
NCI-H358	0.785	0.829	0.812	0.755	0.925	0.914	0.895	0.834	0.413	0.272	0.699	0.741	0.859	0.729	0.795	0.164	0.164	0.159	0.134	0.14
EPLC-272H	0.817	0.812	0.755	0.849	0.92	1.01	0.766	0.76	0.569	0.403	0.76	0.719	0.679	0.789	0.958	0.214	0.333	0.294	0.36	0.314
PC-3 [JPC-3]	0.956	0.978	0.974	0.926	1.07	1.11	1.03	1.03	0.898	0.664	0.914	0.961	0.941	0.919	0.979	1.35	1.11	1	1.26	0.555
NCI-H650	1.01	0.887	0.948	1.1	1.01	1.07	0.937	0.892	0.747	0.412	1.03	1.31	1.03	1.14	1.21	1	0.815	0.897	0.723	0.47
NCI-H838	0.915	0.976	0.948	0.942	0.998	0.978	0.775	0.659	0.347	0.296	0.988	0.966	0.943	0.928	1.01	0.25	0.227	0.264	0.203	0.165
COR-L 105	0.89	0.918	0.887	0.851	1.01	0.959	0.898	0.781	0.363	0.425	0.897	1.06	1.02	0.954	0.954	1.22	1.25	0.891	0.892	0.356
NCI-H2405	0.769	0.707	0.784	0.892	0.82	1.01	0.993	0.97	0.607	0.447	0.4	0.426	0.503	0.384	0.508	1.1	1.03	0.972	0.641	0.378
NCI-H1395	0.901	0.815	0.879	0.903	1.03	0.781	0.852	0.807	0.67	0.577	1.1	1.3	0.935	1.11	1.16	0.537	0.883	0.705	0.722	0.521
NCI-H661	0.951	1.01	0.963	0.963	1	1.08	1.03	0.953	0.482	0.432	0.666	0.493	0.738	0.81	0.907	0.823	0.932	0.854	0.498	0.515
NCI-H1915	0.954	1.06	0.945	0.942	0.949	1.02	1.03	1.02	0.657	0.579	1.01	1.1	0.977	0.986	1.08	0.355	0.508	0.455	0.425	0.42
